Test results taken from patent publication US9260484B2, “Small molecule composite surfaces as inhibitors of protein-protein interactions” (Ohio State Innovation Foundation, priority 2011, dated 2016).
“Also recorded” adds a separate entry of the source. Like-named read-outs stand apart in the source and are kept apart here. Numbered stars: 1 amine (or outer) side, 2 acyl side, 3 side chain; on linkers, the order of the positions; unused ones are H or OH. Bridge positions count the residues as written; N and C are the ends. Square brackets hold non-standard residues; d marks the D form. Peptide text beside a SMILES is read from it. dβ3h(hPhe) = O=C(C[C@@H](CCc1ccccc1)N[*:1])[*:2]; Phe(4-F) = N[C@@H](Cc1ccc(F)cc1)C(=O)O; d2Nal = N[C@H](Cc1ccc2ccccc2c1)C(=O)O; X1 = CC(C)(CO[*:2])C(=O)C(=O)[*:1]; dNle = CCCC[C@@H](N)C(=O)O; Pip = O=C(O)[C@@H]1CCCCN1

Columns and labels:
FKBP = target: T1, FKBP (Homo sapiens, UniProt P62942); experiment: fluorescence polarization (FA) competition assay for binding to FKBP
T1 construct: 200 nM recombinant FKBP
Method: To facilitate solid-phase synthesis, an invariant glutamine was added to the C-terminal side of the R^1 residue, for the purpose of backbone peptide cyclization and providing an anchor for attachment to the solid support. For this set of compounds, the dipeptide Ala-Ala was used as the effector domain. The rapalogs were tested for binding to FKBP by a fluorescence polarization competition assay^22,23. SLF^24, was labeled with the fluorescent dye fluorescein^23. Binding of the labeled ligand to FKBP increases its fluorescence anisotropy (FA) values. Addition of an unlabeled ligand to the reaction inhibits the binding of SLF to FKBP and therefore decreases the FA values. […] Subsequently, the IC50 values were converted into KI values based on the Cheng-Prusoff equation.
A previously reported synthetic ligand of FKBP^46 (SLF in FIG. 2), was labeled with the fluorescent dye fluorescein^20. Binding of the labeled ligand to FKBP increases its fluorescence anisotropy (FA) value.
The fluorescence polarization based competition assay was performed in a 384-well plate. […] After the addition of the rapalogs as the last component, the binding reactions were incubated for 1 h at room temperature to reach binding equilibrium. Anisotropy values were measured on a FlexStation 3 plate reader (Molecular Devices, Sunnyvale, Calif.).

K-Ras and RalGDS = K-Ras and RalGDS (Homo sapiens, UniProt P01116, G12V); experiment: bead assay: K-Ras binding to immobilized Myc-tagged effector protein; conditions: 10 μM compound; Texas red-labeled GST-K-Ras 100 nM
Excerpt: The Myc-tagged effector proteins were immobilized on protein A-beads with an anti-Myc antibody.

K-Ras and Tiam = K-Ras and Tiam (Homo sapiens, UniProt P01116, G12V); experiment: as above; conditions: 10 μM compound; Texas red-labeled GST-K-Ras 100 nM
Method: (§1) Compound B12 was also assayed for its ability to inhibit the PPI between K-Ras and its effector proteins including PI3 kinase, Tiam, and RalGDS. The Myc-tagged effector proteins were immobilized on protein A-beads with an anti-Myc antibody.

K-Ras and PI3 kinase = K-Ras and PI3 kinase (Homo sapiens, UniProt P01116, G12V); experiment: as above; conditions: 10 μM compound; Texas red-labeled GST-K-Ras 100 nM
Method: as §1

[1] = tested on: H358 lung cancer cell line; experiment: MTT viability assay; format: cell-based, human
Method: (§2) FIG. 14. MTT viability assay with H358 and A549 lung cancer cell lines (both have mutant K-Ras). The assay was performed to assess the effect of compound B12 on proliferation and survival of these cell lines.
(§3) Finally, preliminary cellular assays were performed with compound […]. Singh et al. used RNA interference to down regulate mutant K-RAS in a large number of human cancer cell lines.^102 They reported that the H358 cell line is very sensitive to losing mutant K-Ras whereas the A549 cell line is hardly affected. Both are lung cancer cell lines.

[2] = tested on: A549 lung cancer cell line; experiment: MTT viability assay; format: cell-based, human
Method: as §2, §3

FKBP (no GST) = FKBP (no GST) (Homo sapiens, UniProt P62942); experiment: fluorescence polarization binding of FITC-labeled compound to FKBP
[3] = Table 2, converted from IC50 by Cheng-Prusoff equation, read-out: Ki

T1 sequence (P62942 whole entry): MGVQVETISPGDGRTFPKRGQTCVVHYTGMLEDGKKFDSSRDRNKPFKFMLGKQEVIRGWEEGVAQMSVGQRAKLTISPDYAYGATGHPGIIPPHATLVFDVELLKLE
Sequence of K-Ras and RalGDS (P01116 1-188 isoform P01116-2 G12V): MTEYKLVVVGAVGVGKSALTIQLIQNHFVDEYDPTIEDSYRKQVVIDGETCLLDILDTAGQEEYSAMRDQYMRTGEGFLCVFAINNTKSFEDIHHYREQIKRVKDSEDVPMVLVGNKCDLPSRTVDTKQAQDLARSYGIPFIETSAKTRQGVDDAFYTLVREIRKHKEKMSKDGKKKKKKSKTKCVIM
Sequence of K-Ras and Tiam (P01116 1-188 isoform P01116-2 G12V): as above
Sequence of K-Ras and PI3 kinase (P01116 1-188 isoform P01116-2 G12V): as above
Sequence of FKBP (no GST) (P62942 whole entry): as the sequence (P62942 whole entry) above

**Q.** For `C[C@@H]1NC(=O)[C@H](C)NC(=O)[C@H](CCC(N)=O)NC(=O)[C@H](C)NC(=O)[C@@H]2CCCCN2C(=O)C(=O)C(C)(C)COC(=O)[C@@H](C)NC1=O` [Compound 2a] (HELM PEPTIDE1{[O=C([C@@H]1CCCCN1[*:1])[*:2]].A.Q.A.A.[dA]}|CHEM1{[CC(C)(CO[*:2])C(=O)C(=O)[*:1]]}$PEPTIDE1,CHEM1,1:R1-1:R1|PEPTIDE1,CHEM1,6:R2-1:R2$$$V2.0), which Ki (FKBP; [3]) is on record?
**A.** 7 ± 1 µM

**Q.** How did the Ki (FKBP) turn out when `C[C@@H]1NC(=O)[C@H](C)NC(=O)[C@H](CCC(N)=O)NC(=O)C[C@H](CCc2ccccc2)NC(=O)[C@@H]2CCCCN2C(=O)C(=O)C(C)(C)COC(=O)[C@H](Cc2ccccc2)NC1=O` [Compound 2j] was run?
**A.** 0.8 ± 0.1 µM

**Q.** With `C[C@@H]1NC(=O)[C@H](C)NC(=O)[C@H](CCC(N)=O)NC(=O)C[C@@H](CCc2ccccc2)NC(=O)[C@@H]2CCCCN2C(=O)C(=O)C(C)(C)COC(=O)[C@@H](C)NC(=O)[C@H](C)NC1=O` [Compound 2p] ([Pip][dβ3h(hPhe)]QAAA[dA]; linker N-C via X1) as the compound, how does the Ki (FKBP; [3]) read?
**A.** 0.18 ± 0.06 µM

**Q.** With `C[C@@H]1NC(=O)[C@H](C)NC(=O)[C@H](CCC(N)=O)NC(=O)C[C@@H](CCc2ccccc2)NC(=O)[C@@H]2CCCCN2C(=O)C(=O)C(C)(C)COC(=O)[C@H]([C@@H](C)O)NC(=O)[C@H](C)NC1=O` [Compound 2r] ([Pip][dβ3h(hPhe)]QAAAT; linker N-C via X1) as the compound, how does the Ki (FKBP; [3]) read?
**A.** 0.3 ± 0.1 µM

**Q.** `C[C@@H]1NC(=O)[C@H](CCC(N)=O)NC(=O)C[C@@H](CCc2ccccc2)NC(=O)[C@@H]2CCCCN2C(=O)C(=O)C(C)(C)COC(=O)[C@H](Cc2ccccc2)NC(=O)[C@H](C)NC(=O)[C@@H](C)NC1=O` [Compound 2s] ([Pip][dβ3h(hPhe)]QA[dA]AF; linker N-C via X1) was tested. Which Ki (FKBP) did it give?
**A.** 0.9 ± 0.2 µM

**Q.** How did the “binding of GST-KRas to immobilized RalGDS” value (K-Ras and RalGDS) turn out when `CCCC[C@H]1NC(=O)[C@H](Cc2ccc(F)cc2)NC(=O)[C@H](CCCNC(=N)N)NC(=O)[C@@H](Cc2ccc3ccccc3c2)NC(=O)[C@H](CCCNC(=N)N)NC(=O)[C@H](CCCNC(=N)N)NC(=O)[C@H](CCC(N)=O)NC(=O)C[C@@H](CCc2ccccc2)NC(=O)[C@@H]2CCCCN2C(=O)C(=O)C(C)(C)COC1=O` [Compound C12] ([Pip][dβ3h(hPhe)]QRR[d2Nal]R[Phe(4-F)][dNle]; linker N-C via X1) was run?
**A.** completely blocked; also recorded: Disruption

**Q.** What about the “binding of GST-KRas to immobilized Tiam” value (K-Ras and Tiam) of the same compound?
**A.** completely blocked

**Q.** And the “binding of GST-KRas to immobilized PI3 kinase” value (K-Ras and PI3 kinase)?
**A.** completely blocked

**Q.** What about the “sensitivity of cells to compound” value ([1]; FIG. 14) of the same compound?
**A.** sensitive

**Q.** And the IC50 ([1]; H358 cells, proliferation and survival, preliminary)?
**A.** ~10 µM

**Q.** What about the IC50 ([2]; A549 cells, proliferation and survival, preliminary) of the same compound?
**A.** ~50 µM

**Q.** What about the “sensitivity of cells to compound” value ([2]; FIG. 14) of the same compound?
**A.** significantly less sensitive

**Q.** `CCCC[C@H]1NC(=O)[C@H](Cc2ccc(F)cc2)NC(=O)[C@H](CCCN=C(N)N)NC(=O)[C@@H](Cc2ccc3ccccc3c2)NC(=O)[C@H](CCCN=C(N)N)NC(=O)[C@H](CCCN=C(N)N)NC(=O)[C@H](CCC(N)=O)NC(=O)C[C@@H](CCc2ccccc2)NC(=O)[C@@H]2CCCCN2C(=O)C(=O)C(C)(C)COC1=O` [Compound C12] ([Pip][dβ3h(hPhe)]QRR[d2Nal]R[Phe(4-F)][dNle]; linker N-C via X1) was tested. Which Kd (FKBP (no GST)) did it give?
**A.** 0.5 µM
